Like-named read-outs stand apart in the source and are kept apart here.
Key:
[1] = tested on: HLA-A*02:01-expressing target cells (T2 cells); format: cell-based, human
[2] = tested on: HLA-A*02:01-expressing target cells (T2 cells); format: cell-based, human; remark: listed apart in the source
[3] = tested on: HLA-A*24:02-expressing target cells (TISI cells); format: cell-based, human
[4] = tested on: HLA-A*24:02-expressing target cells (TISI cells); format: cell-based, human; remark: listed apart in the source
[5] = tested on: HLA-A*02:06-expressing target cells (HEV0011 cells); format: cell-based, human
[6] = tested on: HLA-A*02:06-expressing target cells (HEV0011 cells); format: cell-based, human; remark: listed apart in the source
[7] = molecular target: T1, SARS-CoV-2 ORF1ab peptide on HLA-A*02:01 (human); test: cytokine release
T1 peptide: TLMIERFVSL

[8] = molecular target: T2, SARS-CoV-2 ORF1ab peptide on HLA-A*02:01 (human); test: cytokine release
T2 peptide: NVLAWLYAAV

[9] = cells induced from HLA-A*02:01-positive PBMCs, peptide-pulsed T2 cells vs T2 cells not pulsed
[10] = HLA-A*02:01-restricted CTL lines, peptide-pulsed T2 cells
[11] = cells induced from HLA-A*24:02-positive PBMCs, peptide-pulsed TISI cells vs TISI cells not pulsed
[12] = cells induced from HLA-A*02:06-positive PBMCs, peptide-pulsed HEV0011 cells vs HEV0011 cells not pulsed
[13] = HLA-A*02:06-restricted CTL lines, peptide-pulsed HEV0011 cells

YVYNPFMIDV (a peptide derived from ORF1ab polyprotein of SARS-CoV-2) [Peptide 11, SARS-CoV-2 ORF1ab-derived 10 mer peptide, position 6160]
Peptide-specific IFN-γ production (ELISPOT) [1, 9]: observed
IFN-γ production by CTL lines (ELISA) [2, 10]: observed
Peptide-specific IFN-γ production (ELISPOT) [3, 11]: observed
IFN-γ production by CTL lines (ELISA) ([4]; HLA-A*24:02-restricted CTL lines, peptide-pulsed TISI cells): observed
Peptide-specific IFN-γ production (ELISPOT) [5, 12]: observed
IFN-γ production by CTL lines (ELISA) [6, 13]: observed

TLEPEYENSV [Peptide 13, SARS-CoV-2 ORF1ab-derived 10 mer peptide, position 5740]
Peptide-specific IFN-γ production (ELISPOT) [1, 9]: observed
Peptide-specific IFN-γ production (ELISPOT) [3, 11]: no peptide-specific IFN-γ production was observed

FVLWAHGFEL [Peptide 3]
Peptide-specific IFN-γ production (ELISPOT) [1]: observed
IFN-γ production by CTL lines (ELISA) [2]: observed
Peptide-specific IFN-γ production (ELISPOT) [3]: observed
IFN-γ production by CTL lines (ELISA) [4]: observed
Peptide-specific IFN-γ production (ELISPOT) [5]: observed
IFN-γ production by CTL lines (ELISA) [6]: observed
Detection of tetramer-positive CD8-positive T cells recognizing the peptide (CD8-positive T cells): detected

YSFLPGVYSV (a peptide derived from ORF1ab polyprotein of SARS-CoV-2) [Peptide 14, SARS-CoV-2 ORF1ab-derived 10 mer peptide, position 3098]
Peptide-specific IFN-γ production (ELISPOT) [1, 9]: observed
Peptide-specific IFN-γ production (ELISPOT) [3, 11]: no peptide-specific IFN-γ production was observed

MMGFKMNYQV (a peptide derived from ORF1ab polyprotein of SARS-CoV-2) [Peptide 5, SARS-CoV-2 ORF1ab-derived 10 mer peptide, position 5982]
Peptide-specific IFN-γ production (ELISPOT) [1, 9]: observed
Peptide-specific IFN-γ production (ELISPOT) [3, 11]: no peptide-specific IFN-γ production was observed

YMPASWVMRI (a peptide derived from ORF1ab polyprotein of SARS-CoV-2) [Peptide 4, SARS-CoV-2 ORF1ab-derived 10 mer peptide, position 3654]
Peptide-specific IFN-γ production (ELISPOT) [1, 9]: observed
IFN-γ production by CTL lines (ELISA) [2, 10]: observed
Peptide-specific IFN-γ production (ELISPOT) [3, 11]: no peptide-specific IFN-γ production was observed
Peptide-specific IFN-γ production (ELISPOT) [5, 12]: observed
IFN-γ production by CTL lines (ELISA) [6, 13]: observed

MMILSDDAV (a peptide derived from ORF1ab polyprotein of SARS-CoV-2) [Peptide 8, SARS-CoV-2 ORF1ab-derived 9 mer peptide, position 5147]
Peptide-specific IFN-γ production (ELISPOT) [1, 9]: not observed

FTYASALWEI [Peptide 7]
Peptide-specific IFN-γ production (ELISPOT) [1]: observed
IFN-γ production by CTL lines (ELISA) [2]: observed
Peptide-specific IFN-γ production (ELISPOT) [3]: no peptide-specific IFN-γ production was observed
Peptide-specific IFN-γ production (ELISPOT) [5]: observed
IFN-γ production by CTL lines (ELISA) [6]: observed

SLFDMSKFPL (a peptide derived from ORF1ab polyprotein of SARS-CoV-2) [Peptide 1, SARS-CoV-2 ORF1ab-derived 10 mer peptide, position 7041]
Peptide-specific IFN-γ production (ELISPOT) [1, 9]: observed
Peptide-specific IFN-γ production (ELISPOT) [3, 11]: no peptide-specific IFN-γ production was observed

FMIDVQQWGF (a peptide derived from ORF1ab polyprotein of SARS-CoV-2) [Peptide 15, SARS-CoV-2 ORF1ab-derived 10 mer peptide, position 6165]
Peptide-specific IFN-γ production (ELISPOT) [1, 9]: observed
IFN-γ production by CTL lines (ELISA) [2, 10]: observed
Peptide-specific IFN-γ production (ELISPOT) [3, 11]: no peptide-specific IFN-γ production was observed
Peptide-specific IFN-γ production (ELISPOT) [5, 12]: observed
IFN-γ production by CTL lines (ELISA) [6, 13]: observed

TLMIERFVSL (a peptide derived from ORF1ab polyprotein of SARS-CoV-2) [Peptide 10, SARS-CoV-2 ORF1ab-derived 10 mer peptide, position 5245]
Peptide-specific IFN-γ production (ELISPOT) [1, 9]: observed
IFN-γ production by CTL lines (ELISA) [2, 10]: observed
Peptide-specific IFN-γ production (ELISPOT) [3, 11]: no peptide-specific IFN-γ production was observed
Peptide-specific IFN-γ production (ELISPOT) [5, 12]: observed
IFN-γ production by CTL lines (ELISA) [6, 13]: observed

LMYKGLPWNV [Peptide 2]
Peptide-specific IFN-γ production (ELISPOT) [1]: observed
IFN-γ production by CTL lines (ELISA) [2]: observed
Peptide-specific IFN-γ production (ELISPOT) [3]: no peptide-specific IFN-γ production was observed
Peptide-specific IFN-γ production (ELISPOT) [5]: not observed

NVLAWLYAAV (a peptide derived from ORF1ab polyprotein of SARS-CoV-2) [Peptide 12, SARS-CoV-2 ORF1ab-derived 10 mer peptide, position 3466]
Peptide-specific IFN-γ production (ELISPOT) [1, 9]: observed
IFN-γ production by CTL lines (ELISA) [2, 10]: observed
Peptide-specific IFN-γ production (ELISPOT) [3, 11]: no peptide-specific IFN-γ production was observed
Peptide-specific IFN-γ production (ELISPOT) [5, 12]: observed
IFN-γ production by CTL lines (ELISA) [6, 13]: observed

FGMSRIGMEV (a peptide derived from N polyprotein of SARS-CoV-2) [Peptide 9, SARS-CoV-2 N protein-derived 10 mer peptide, position 315]
Peptide-specific IFN-γ production (ELISPOT) [1, 9]: observed
Peptide-specific IFN-γ production (ELISPOT) [3, 11]: no peptide-specific IFN-γ production was observed

B1: Peptide 10-responsive TCR (TCR)
alpha TRAV8-6 TRAJ36 CDR3: CAITGANNLFF
beta TRBV20-1 TRBJ1-5 CDR3: CSAEDRGSNSNQPQHF
binding result [7]: recognises

B2: Peptide 12-responsive TCR-2 (TCR)
alpha TRAV24 TRAJ29 CDR3: CAFLSGNTPLVF
beta TRBV27 TRBJ1-6 CDR3: CASSPAAYSPLHF
binding result [8]: recognises

B3: Peptide 12-responsive TCR-1 (TCR)
alpha TRAV1-2 TRAJ20 CDR3: CAVRDPRNDYKLSF
beta TRBV27 TRBJ1-1 CDR3: CATQVNTEAFF
binding result [8]: recognises

From US20240067679A1, “SARS-COV-2 PROTEIN-DERIVED PEPTIDE AND VACCINE CONTAINING SAME” (Onco Therapy Science, Inc., priority 2021, published 2024)
